From patent US8420648B2, “Polymorphs of brimonidine pamoate” (Bausch & Lomb Incorporated, priority 2008, dated 2013)
Like-named read-outs stand apart in the source and are kept apart here.

Assays:
[1] = ambient conditions
[2] = Competitive slurries of brimonidine hemi-pamoate forms; format: physicochemical; conditions: for XRPD (1 week): form: competitive slurry of Forms A, RT; for relative stability (conclusion from competitive slurries): competitive slurries in THF or water, one week
[3] = 88% RH; for Visual inspection (2 week): 2 weeks, inspected for deliquescence
Experimental: This solution results in 88% RH environment. After two weeks of storage the crystalline form was determined by XRPD and solid inspected for deliquescence.

[4] = for XRPD pattern of the solids following moisture sorption analysis: after moisture sorption analysis; for hygroscopicity (in words) / observation upon desorption: moisture sorption analysis; for observation upon desorption: desorption scan; for water adsorbed at 60% RH / water adsorbed at 90% RH: 25° C.
Experimental: Approximately 10 mg of the sample was analyzed in a Pyrex bulb. Each scan utilized a step size of 10% RH and a maximum equilibration time of four hours per point. The sample was dried for one hour at 80° C. following the desorption scan to obtain the dry sample weight and then it was analyzed by XRPD.

[5] = Experimental: After one week of exposure, the samples were analyzed by XRPD to check for form conversion and HPLC analysis to check for potential degradation. […] Ambient • Detection: 248 nm • Diluent: MeOH • Injection Volume: 5 μl
[6] = ambient
Source text: Following one week intervals, samples were isolated by centrifugation and dried in vacuo at ambient temperature overnight and analyzed by XRPD to check for polymorphic form conversion.

[7] = cited from earlier work
[8] = stored uncapped at 60° C., 1 week
[9] = 60° C., sample exposed for 6 days (footnote)

Molecule | form by XRPD after overnight slurry in water [1] | XRPD (1 week): form ([2]; B, C and D in THF (1.0 mL)) | XRPD (1 week): form ([2]; C, D and E in water (1.0 mL)) | Visual inspection (2 week) [3] | XRPD pattern of the solids following moisture sorption analysis [4] | hygroscopicity (in words) [4] | observation upon desorption [4] | water adsorbed at 60% RH ([4]; moisture sorption) [wt %] | water adsorbed at 90% RH ([4]; moisture sorption) [wt %] | solid state stability after one week of storage at 60° C. (in words, HPLC and XRPD) ([5]; 60° C., one week) | HPLC (% purity) after thermal stress [5, 8] [%] | XRPD (1 week): crystallinity [5, 8] | XRPD (1 week): form [5, 8] | other results
Brc1c(NC2=NCCN2)ccc2nccnc12.Brc1c(NC2=NCCN2)ccc2nccnc12.O=C(O)c1cc2ccccc2c(Cc2c(O)c(C(=O)O)cc3ccccc23)c1O [Form C, brimonidine hemi-pamoate] | mixture of Forms B and F | Form E | Form F | No deli- | consistent with Form C | moderately hygroscopic | no hysteresis or indication of hydrate formation | 4.6 | 13.0 | no significant degradation or signs of form conversion | 97.9 | Semi-cryst. | (Form C) | 
Brc1c(NC2=NCCN2)ccc2nccnc12.Brc1c(NC2=NCCN2)ccc2nccnc12.O=C(O)c1cc2ccccc2c(Cc2c(O)c(C(=O)O)cc3ccccc23)c1O [Form A, brimonidine hemi-pamoate] | Form B | Form E | Form F | No deli- | consistent with the Form A starting material | slightly hygroscopic | no hysteresis or indication of hydrate formation | 2.2 | 2.5 | stable by XRPD and HPLC | 100.0 | Crystalline | (Form A) | Form by XRPD (1 week) ([6]; slurry in THF 1 mL, 1 week): Form E; Form by XRPD (3 weeks) ([6]; slurry in water (magnetic stirring) 1 mL, 3 weeks): Form B; stability after two weeks of storage at elevated relative humidity (in words) [3]: no sign of deliquescence or change in crystalline form
brimonidine tartrate |  |  |  |  |  |  |  |  |  |  |  |  |  | solubility in a pH 7.0 phosphate buffer ([7]; pH 7.0 phosphate buffer): 2.4 mg/mL; solubility in water ([7]; water): 34 mg/mL
Brc1c(NC2=NCCN2)ccc2nccnc12 [brimonidine freebase, 5-bromo-6-(2-imidazolidinylideneamino)quinoxaline] |  |  |  |  |  |  |  |  |  |  |  |  |  | solubility in water (in words) ([7]; water): negligible
Brc1c(NC2=NCCN2)ccc2nccnc12.Brc1c(NC2=NCCN2)ccc2nccnc12.O=C(O)c1cc2ccccc2c(Cc2c(O)c(C(=O)O)cc3ccccc23)c1O [Form B, brimonidine hemi-pamoate] |  | Form E |  |  | consistent with Form B |  |  | 5.4 | 5.8 |  | 100.0 | Crystalline | (Form B) | water content stabilized between 20-90% RH [4]: 5-6 wt %; solid state stability after one week of storage at 60° C. (in words, HPLC and XRPD) [5]: no degradation or signs of form conversion
Brc1c(NC2=NCCN2)ccc2nccnc12.Brc1c(NC2=NCCN2)ccc2nccnc12.O=C(O)c1cc2ccccc2c(Cc2c(O)c(C(=O)O)cc3ccccc23)c1O [Form E, brimonidine hemi-pamoate] | mixture of Forms B and F |  | Form F |  | consistent with Form E | slightly hygroscopic | no hysteresis or indication of hydrate formation | 3.1 | 4.2 | no significant degradation or signs of form conversion |  |  |  | relative stability (conclusion from competitive slurries) [2]: most stable anhydrate form; HPLC (% purity) after thermal stress [5, 9]: 100.0%; XRPD (1 week): crystallinity [5, 9]: Semi-cryst.; XRPD (1 week): form [5, 9]: (Form E)
Brc1c(NC2=NCCN2)ccc2nccnc12.Brc1c(NC2=NCCN2)ccc2nccnc12.O=C(O)c1cc2ccccc2c(Cc2c(O)c(C(=O)O)cc3ccccc23)c1O [Form D, brimonidine hemi-pamoate] | mixture of Forms B and F | Form E | Form F |  | consistent with Form D | slightly hygroscopic | no hysteresis or indication of hydrate formation | 1.8 | 2.6 | no significant degradation or signs of form conversion | 96.7 | Crystalline | (Form D) | 
Brc1c(NC2=NCCN2)ccc2nccnc12.Brc1c(NC2=NCCN2)ccc2nccnc12.O=C(O)c1cc2ccccc2c(Cc2c(O)c(C(=O)O)cc3ccccc23)c1O [Form F, brimonidine hemi-pamoate] | mixture of Forms B and F |  |  | No deli- | consistent with Form F |  |  |  |  |  |  |  |  | relative stability (conclusion from competitive slurries) [2]: more stable in water than Forms A, C, D and E; stability after two weeks of storage at elevated relative humidity (in words) [3]: no sign of deliquescence or change in crystalline form; water adsorbed at 40% RH ([4]; moisture sorption, 40% RH): approximately 1.8 molar equivalent
